# Assay results taken from patent publication US8476448B2, “Solid form of 4-[[(6-chloropyridin-3-yl)methyl](2,2-difluoroethyl)amino]furan-2(5H)-one” (Bayer Cropscience AG, priority 2009, dated 2013).
# Assay: Stability of the novel solid form on prolonged storage
# Type: physicochemical
structure (smiles),measurement,value
"O=C1C=C(N(Cc2ccc(Cl)nc2)CC(F)F)CO1 [novel solid form, 4-[[(6-chloropyridin-3-yl)methyl](2,2-difluoroethyl)amino]furan-2(5H)-one]",thermodynamic stability / conversion into another form,not converted into another form
